The values that follow come from patent US7858609B2, “Solid ganaxolone formulations and methods for the making and use thereof” (Marinus Pharmaceuticals, priority 2005, dated 2010).

The nature of this series: Solubility of ganaxolone using water soluble beta cyclodextrins. The class given is physicochemical. To be noted: using water soluble beta cyclodextrins (beta-sulfobutyl-cyclodextrin, 2-hydroxypropylbetacyclodextrin). The text has this: Ganaxolone formulations suitable for intramuscular, subcutaneous, or intravenous injection may comprise physiologically acceptable sterile aqueous or non-aqueous solutions, dispersions, suspensions or emulsions, and sterile powders for reconstitution into sterile injectable solutions or dispersions. Examples of suitable aqueous and non-aqueous carriers, diluents, solvents, or vehicles including water, ethanol, polyols (propylene glycol, polyethylene-glycol, glycerol, cremophor and the like), suitable mixtures thereof, vegetable oils (such as olive oil) and injectable organic esters such as ethyl oleate. Additionally, Ganaxolone can be dissolved at concentrations of >1 mg/ml using water soluble beta cyclodextrins (e.g. beta-sulfobutyl-cyclodextrin and 2-hydroxypropylbetacyclodextrin. Proper fluidity can be maintained, for example, by the use of a coating such as lecithin, by the maintenance of the required particle size in the case of dispersions, and by the use of surfactants. Ganaxolone formulations suitable for subcutaneous injection may also contain additives such as preserving, wetting, emulsifying, and dispensing agents. Prevention of the growth of microorganisms can be ensured by various antibacterial and antifungal agents, such as parabens, benzoic acid, benzyl alcohol, chlorobutanol, phenol, sorbic acid, and the like. […]

Turning to `CC(=O)[C@H]1CC[C@H]2[C@@H]3CC[C@H]4C[C@](C)(O)CC[C@]4(C)[C@H]3CC[C@]12C` [Ganaxolone, 3α-hydroxy-3β-methyl-5α-pregnan-20-one], the dissolved concentration was greater than 1 mg/mL.
